The values that follow come from the OPERA property sets (Mansouri et al. 2018).

The structures appear in SMILES notation.

Broadly, the boiling point is the temperature of boiling at a given pressure. A word on the melting point: it is the temperature of the solid-liquid transition. On to `Fc1c(F)c(F)c(C(F)(F)F)c(F)c1F`, for which the boiling point is 104 °C, the log10 vapour pressure (mmHg) turned out to be 1.46 and the melting point is -65.6 °C.
`C=C(Cl)C(=O)O` showed a melting point of 66 °C.
On the same count and under the same terms, the figure for `O=c1cc(-c2ccc(O)cc2)oc2cc(O)cc(O)c12` is 348 °C.
As for `O=P(O)(O)CP(=O)(O)O`, the melting point was 200 °C.
Regarding `COc1c2occc2cc2ccc(=O)oc12`, the melting point was determined as 148 °C and the ready biodegradability entry was “not readily biodegradable”.
For `O=C(O)c1cc(Cl)ccc1O`, the melting point turned out to be 172 °C.
Molecule `CC1CCCCS1` (stereo unspecified) yielded a boiling point of 153 °C and a melting point of -58 °C.
`Cc1cc(O)ccc1Br` yielded a melting point of 63.5 °C.
Same read-out and setting: to `N=C(N)NC(=N)N` belongs 136 °C.
`CCCCCCCCCCCCCCCC1CCCCC1` displayed a boiling point of 373 °C, a log10 vapour pressure (mmHg) of -6.46 and a melting point of 29 °C.
Regarding `COc1ccc(C=Cc2ccc(OC)cc2)cc1`, the melting point is 214 °C.
`C/C=C/Cl` had a boiling point of 35.2 °C, a log10 vapour pressure (mmHg) of 2.71 and a melting point of -117 °C.
Regarding `CCCCCCCCCCCCCCCCCC(N)=O`, the melting point came out at 109 °C.
As for `Brc1ccc(Oc2cccc(Br)c2)cc1`, the log10 Koa turned out to be 8.57.
As to `Cc1cccc(Cl)c1`, the boiling point amounted to 162 °C, the log10 vapour pressure (mmHg) came to 0.565 and the melting point was -47.8 °C.
For `CCN(CCO)CCO`, the boiling point was 247 °C, the melting point is -50 °C and the ready biodegradability result is given as “not readily biodegradable”.
Consider `Oc1ccc(Br)cc1Br`, for which the boiling point was 238 °C, the melting point came out at 38 °C and the ready biodegradability result is reported as “not readily biodegradable”.
As to `Cl[C@@H]1CCCC[C@H]1Cl`, the boiling point was 200 °C and the melting point is -1.5 °C.
A word on the logP: it is the decadic logarithm of the partition coefficient of the neutral form, usually between octanol and water. A higher logP goes with higher lipophilicity. Regarding `Brc1cc(Br)c(Oc2cc(Br)c(Br)cc2Br)cc1Br`, the logP worked out at 7.9.
Regarding `C1CC2OC2CC1C1CO1` (stereo unspecified), the boiling point came to 227 °C and the ready biodegradability entry is reported as “not readily biodegradable”.
On to `COC(=O)c1ccc(OC)c(OC)c1`, for which the boiling point amounted to 283 °C and the melting point was 60.8 °C.
Turning to `Clc1nnnn1-c1ccccc1`, the melting point is 123 °C.
The same measure, in the same setting: the figure for `COc1cc(O)c(C(C)=O)c(OC)c1` is 82 °C.
On to `CNC(=O)Oc1ccc(C)c(C)c1`, for which the log10 vapour pressure (mmHg) is -3.24 and the melting point was 79.5 °C.
On to `Clc1ccc(-c2c(Cl)cc(Cl)cc2Cl)cc1`, for which the melting point was 65 °C.
The same measure, in the same setting: to `CC1=C(/C=C/C(C)=C/C=C/C(C)=C/C=O)C(C)(C)CC=C1` belongs 77.5 °C; to `O=c1cc(-c2ccccc2)oc2cc(O)cc(O)c12`, 286 °C.
`CC(=O)I` registered a boiling point of 108 °C and a log10 vapour pressure (mmHg) of 1.51.
As to `CCOC1Oc2ccc(OS(C)(=O)=O)cc2C1(C)C` (stereo unspecified), the log10 Koc (L/kg) came to 2.53, the log10 vapour pressure (mmHg) is -5.31 and the melting point is 71 °C.
Regarding `Brc1c(Br)c(Br)c(-c2c(Br)c(Br)c(Br)c(Br)c2Br)c(Br)c1Br`, the log10 vapour pressure (mmHg) is -9.4, the melting point is 375 °C and the ready biodegradability result was “not readily biodegradable”.
Take `CC(C)C(O)C(C)C`: the boiling point was 139 °C and the log10 vapour pressure (mmHg) was found to be 0.477.
`COc1ccn(C)c(=O)c1C#N` came in with a melting point of 202 °C.
The molecule `CCC(C)(O)CC(C)C` (stereo unspecified) gave a boiling point of 152 °C.
Molecule `c1ccc2c(c1)CCO2` came in with a boiling point of 188 °C and a melting point of -21.5 °C.
In the case of `O=C1C(CCS(=O)c2ccccc2)C(=O)N(c2ccccc2)N1c1ccccc1` (stereo unspecified), the melting point stood at 136 °C.
Still for that read-out and setting: the figure for `CCCCCCN1CC(C(=O)O)CC1=O` (stereo unspecified) is 42.5 °C.
`CCCOB(OCCC)OCCC` displayed a boiling point of 180 °C.
On to `O=C1C=CC(=O)C1`, for which the melting point was 37 °C.
On the same count and under the same terms, to `CC(C)OC(=O)C(C(=O)OC(C)C)=C1SCCS1` belongs 54 °C.
`CC1(C)C2CC3C(C2)C31C`: the boiling point is 152 °C and the melting point was found to be 67.5 °C.
In turn, `CC(=O)c1ccc(O)c(O)c1` came in with a melting point of 116 °C.
On to `C=COCC`, for which the boiling point stood at 35.5 °C, the log10 vapour pressure (mmHg) stood at 2.71 and the melting point is -116 °C.
In turn, `Clc1ccccc1-c1ccc(Cl)c(Cl)c1Cl` had a log10 Henry constant (atm·m³/mol) of -3.85.
Consider `c1ccc(-c2ccncn2)cc1`, for which the melting point amounted to 56 °C.
Consider `CCC#CC(C)C`, for which the boiling point amounted to 95.2 °C and the melting point is -117 °C.
As for `CC(=O)C(C)(C)C`, the boiling point was 106 °C, the log10 vapour pressure (mmHg) was 1.5 and the melting point is -52.5 °C.
On the same counts, the results for `CCC(=O)OCC(C)C` are 137 °C, 0.811 and -71.4 °C.
On to `CCN(C)C`, for which the boiling point was 36.5 °C and the melting point was -140 °C.
For the molecule `O=C(O)C(Cc1ccccc1)C(=O)O`, the melting point is 121 °C.
On the same count and under the same terms, the figure for `C=C[C@@]1(C)CC[C@H]2C(=CC[C@@H]3[C@]2(C)CCC[C@@]3(C)C(=O)O)C1` is 160 °C.
In the case of `C1=CC2C=CC1C2`, the boiling point was determined as 89.5 °C and the melting point is -19.1 °C.
Molecule `S=C=NCc1ccccc1` displayed a boiling point of 243 °C and a log10 vapour pressure (mmHg) of -1.81.
Regarding `O=[N+]([O-])c1cc(Cl)cc(Cl)c1`, the melting point was 65.4 °C.
The same measure, in the same setting: to `O=C(O)CCc1cc(I)c(Oc2ccc(O)c(I)c2)c(I)c1` belongs 200 °C; to `O=C(O)c1ccnc(C(=O)O)c1C(=O)O`, 250 °C.
